The values that follow come from patent US7576091B2, “Thiazolo-, oxazalo and imidazolo-quinazoline compounds capable of inhibiting protein kinases” (Cyclacel Limited, priority 2003, dated 2009).

A value given as a limit tells only on which side of the number the result lay.

One test has as its system A549. In words: 72-h MTT cytotoxicity assay, A549. The test is classed as cell-based. The settings on record: A549 human tumour cell line. As for the experimental part:
(§1) Compounds were tested in cyclin-CDK kinase assays and cytotoxicity assays against human tumour cell lines (72-h MTT assay) as previously described.

In another test the target is Cyclin A - CDK2 (Homo sapiens, UniProt P24941). Description: Cyclin A - CDK2 kinase inhibition assay. The test is classed as biochemical. The settings on record: [ATP] = 100 μM. The procedure:
as §1

A further test relates to Saos-2. In words: 72-h MTT cytotoxicity assay, Saos-2. The settings on record: Saos-2 human tumour cell line. The format is cell-based. The procedure:
as §1

In another test the target is Cyclin T - CDK9 (Homo sapiens, UniProt P50750). In words: Cyclin T - CDK9 kinase inhibition assay. The format is biochemical. The settings on record: [ATP] = 100 μM. As for the experimental part: as §1
A further test has as its target Cyclin D1 - CDK4 (Homo sapiens, UniProt P11802). Description: Cyclin D1 - CDK4 kinase inhibition assay. The test is classed as biochemical. The settings on record: [ATP] = 100 μM. As for the experimental part: as §1
The target of the next test is Cyclin B - CDK1 (Homo sapiens, UniProt P06493). Description: Cyclin B - CDK1 kinase inhibition assay. The format is biochemical. The settings on record: [ATP] = 100 μM. The procedure: as §1
The test system of another test is HT29. Description: 72-h MTT cytotoxicity assay, HT29. The test is classed as cell-based. The settings on record: HT-29, HT29 human tumour cell line. As for the experimental part: as §1
For a further test, the target named is Cyclin E - CDK2 (Homo sapiens, UniProt P24941). In words: Cyclin E - CDK2 kinase inhibition assay. The settings on record: [ATP] = 100 μM. The test is classed as biochemical. The procedure: as §1
Another test deals with Cyclin H - CDK7 (Homo sapiens, UniProt P50613). In words: Cyclin H - CDK7 kinase inhibition assay. The test is classed as biochemical. The settings on record: [ATP] = 100 μM. The procedure: as §1
Chain of Cyclin H - CDK7 (P50613 whole entry): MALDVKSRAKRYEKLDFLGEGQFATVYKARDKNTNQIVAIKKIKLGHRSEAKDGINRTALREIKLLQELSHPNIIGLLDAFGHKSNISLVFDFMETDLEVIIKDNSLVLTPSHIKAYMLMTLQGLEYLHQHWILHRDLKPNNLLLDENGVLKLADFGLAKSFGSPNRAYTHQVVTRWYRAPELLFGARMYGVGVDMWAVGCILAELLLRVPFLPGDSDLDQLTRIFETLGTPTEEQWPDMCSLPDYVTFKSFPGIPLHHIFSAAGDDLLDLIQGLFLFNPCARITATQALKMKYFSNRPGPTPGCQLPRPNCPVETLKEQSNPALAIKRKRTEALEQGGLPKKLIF
Chain of Cyclin H - CDK7 (P51946 whole entry partner): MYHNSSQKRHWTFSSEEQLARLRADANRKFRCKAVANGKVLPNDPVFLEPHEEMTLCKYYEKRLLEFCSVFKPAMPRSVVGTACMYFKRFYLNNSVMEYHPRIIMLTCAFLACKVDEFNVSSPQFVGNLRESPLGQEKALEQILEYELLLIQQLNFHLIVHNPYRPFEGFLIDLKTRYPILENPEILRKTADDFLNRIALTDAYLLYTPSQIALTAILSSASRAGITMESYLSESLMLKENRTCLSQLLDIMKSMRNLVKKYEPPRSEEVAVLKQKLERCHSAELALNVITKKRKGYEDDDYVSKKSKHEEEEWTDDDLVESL

Chain of Cyclin B - CDK1 (P06493 whole entry): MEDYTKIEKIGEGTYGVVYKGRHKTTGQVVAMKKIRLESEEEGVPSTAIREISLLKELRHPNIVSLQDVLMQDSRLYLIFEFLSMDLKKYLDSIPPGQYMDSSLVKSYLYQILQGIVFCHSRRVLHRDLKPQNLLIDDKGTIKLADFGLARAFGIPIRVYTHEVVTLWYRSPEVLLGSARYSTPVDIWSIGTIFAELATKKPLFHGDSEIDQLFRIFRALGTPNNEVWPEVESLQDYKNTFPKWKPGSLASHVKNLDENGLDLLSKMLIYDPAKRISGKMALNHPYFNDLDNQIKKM
Chain of Cyclin B - CDK1 (P14635 whole entry partner): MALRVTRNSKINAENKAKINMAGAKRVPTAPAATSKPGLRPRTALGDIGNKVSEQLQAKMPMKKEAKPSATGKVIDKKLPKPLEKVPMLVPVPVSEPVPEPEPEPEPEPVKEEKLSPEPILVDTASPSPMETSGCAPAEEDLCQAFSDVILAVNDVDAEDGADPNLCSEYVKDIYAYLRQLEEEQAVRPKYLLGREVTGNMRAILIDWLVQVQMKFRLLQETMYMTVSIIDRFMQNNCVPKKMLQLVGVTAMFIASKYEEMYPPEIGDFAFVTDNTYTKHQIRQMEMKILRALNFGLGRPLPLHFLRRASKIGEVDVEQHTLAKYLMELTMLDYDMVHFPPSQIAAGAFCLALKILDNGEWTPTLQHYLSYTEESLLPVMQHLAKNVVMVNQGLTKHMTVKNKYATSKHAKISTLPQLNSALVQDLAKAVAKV
Chain of Cyclin D1 - CDK4 (P11802 whole entry): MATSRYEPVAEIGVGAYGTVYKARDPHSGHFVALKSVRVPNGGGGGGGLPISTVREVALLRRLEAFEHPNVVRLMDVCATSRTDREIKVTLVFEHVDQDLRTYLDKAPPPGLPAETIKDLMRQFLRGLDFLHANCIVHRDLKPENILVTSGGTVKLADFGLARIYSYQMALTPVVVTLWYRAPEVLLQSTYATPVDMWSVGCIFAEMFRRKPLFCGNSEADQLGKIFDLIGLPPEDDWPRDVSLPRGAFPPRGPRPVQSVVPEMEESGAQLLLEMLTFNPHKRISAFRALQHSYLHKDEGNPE
Chain of Cyclin D1 - CDK4 (P24385 whole entry partner): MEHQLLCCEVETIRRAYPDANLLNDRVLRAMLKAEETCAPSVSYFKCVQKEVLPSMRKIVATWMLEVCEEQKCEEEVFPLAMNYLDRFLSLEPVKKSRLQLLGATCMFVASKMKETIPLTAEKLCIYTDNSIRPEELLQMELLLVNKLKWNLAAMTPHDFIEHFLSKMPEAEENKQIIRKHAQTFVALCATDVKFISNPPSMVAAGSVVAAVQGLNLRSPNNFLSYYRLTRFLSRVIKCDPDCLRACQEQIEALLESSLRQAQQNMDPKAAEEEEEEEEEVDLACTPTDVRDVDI
Chain of Cyclin T - CDK9 (P50750 whole entry): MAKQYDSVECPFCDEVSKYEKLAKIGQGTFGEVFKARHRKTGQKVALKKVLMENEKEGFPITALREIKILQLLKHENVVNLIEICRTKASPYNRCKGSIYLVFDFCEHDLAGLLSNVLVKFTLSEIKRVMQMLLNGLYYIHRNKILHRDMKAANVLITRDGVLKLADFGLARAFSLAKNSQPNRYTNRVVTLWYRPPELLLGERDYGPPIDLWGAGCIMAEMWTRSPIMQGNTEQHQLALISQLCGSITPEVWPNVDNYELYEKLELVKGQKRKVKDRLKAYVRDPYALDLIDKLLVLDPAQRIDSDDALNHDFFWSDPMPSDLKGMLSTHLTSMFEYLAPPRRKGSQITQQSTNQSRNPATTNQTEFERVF
Chain of Cyclin T - CDK9 (O60563 whole entry partner): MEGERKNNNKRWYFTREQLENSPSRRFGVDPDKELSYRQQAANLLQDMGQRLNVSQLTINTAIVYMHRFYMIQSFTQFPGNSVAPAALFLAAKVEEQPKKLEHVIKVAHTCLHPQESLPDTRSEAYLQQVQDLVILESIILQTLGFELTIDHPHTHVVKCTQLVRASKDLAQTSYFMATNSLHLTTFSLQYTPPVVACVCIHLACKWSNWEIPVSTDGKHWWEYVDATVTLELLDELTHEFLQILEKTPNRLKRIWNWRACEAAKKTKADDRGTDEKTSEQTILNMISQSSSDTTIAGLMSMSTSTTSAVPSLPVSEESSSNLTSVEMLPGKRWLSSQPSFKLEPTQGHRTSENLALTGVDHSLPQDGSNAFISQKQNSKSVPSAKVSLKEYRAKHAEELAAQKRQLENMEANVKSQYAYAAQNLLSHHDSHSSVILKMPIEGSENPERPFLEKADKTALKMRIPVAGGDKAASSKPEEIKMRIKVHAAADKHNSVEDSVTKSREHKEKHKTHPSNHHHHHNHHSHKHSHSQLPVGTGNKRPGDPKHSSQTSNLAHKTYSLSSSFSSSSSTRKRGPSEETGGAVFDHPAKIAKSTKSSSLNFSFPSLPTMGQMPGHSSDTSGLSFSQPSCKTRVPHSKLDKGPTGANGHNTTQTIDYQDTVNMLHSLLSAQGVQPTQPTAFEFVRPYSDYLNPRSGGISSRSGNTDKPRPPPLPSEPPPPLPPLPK

Turning to `Cc1nc2c(s1)-c1nc(Nc3cccc([N+](=O)[O-])c3)ncc1CC2` [Cpd 1, (2-Methyl-4,5-dihydro-thiazolo[4,5-h]quinazolin-8-yl)-(3-nitro-phenyl)-amine], the IC50 in the test with A549 stood at 680 nM; on Cyclin A - CDK2, 560 ± 40 nM; in the test on Saos-2, 1200 ± 700 nM; on Cyclin T - CDK9, 8 nM; against Cyclin D1 - CDK4, 3800 ± 600 nM; at Cyclin B - CDK1, 1000 ± 200 nM. In addition, the IC50 with HT29 was 1400 ± 300 nM; against Cyclin E - CDK2, 50 ± 40 nM; on Cyclin H - CDK7, 1700 ± 500 nM.
In the case of `Cc1nc2c(s1)-c1nc(Nc3ccc(C(F)(F)F)cc3)ncc1CC2` [Cpd 2, (2-Methyl-4,5-dihydro-thiazolo[4,5-h]quinazolin-8-yl)-(4-trifluoromethyl-phenyl)-amine], the IC50 stood at 2800 ± 1000 nM with A549; 4200 ± 900 nM at Cyclin A - CDK2; 4400 ± 1800 nM in the test on Saos-2; 6100 nM against Cyclin T - CDK9; 9200 ± 1300 nM against Cyclin D1 - CDK4; 2800 ± 700 nM at Cyclin B - CDK1. Further, the IC50 in the test on HT29 is 7100 ± 1300 nM; at Cyclin E - CDK2 it was 400 ± 100 nM; against Cyclin H - CDK7 it was above 100000 nM.
In the case of `Cc1nc2c(s1)-c1nc(Nc3cccc(O)c3)ncc1CC2` [Cpd 3, 3-(2-Methyl-4,5-dihydro-thiazolo[4,5-h]quinazolin-8-ylamino)-phenol], the IC50 in the test on A549 was found to be 2500 ± 1200 nM; on Cyclin A - CDK2 it was 2 ± 1 nM; with Saos-2, 2300 ± 1800 nM; against Cyclin T - CDK9, 13 nM; against Cyclin D1 - CDK4, 1100 ± 700 nM; at Cyclin B - CDK1, 1100 ± 400 nM. Also, the IC50 was found to be 9400 ± 5600 nM with HT29, 20 ± 10 nM against Cyclin E - CDK2 and 110 ± 30 nM at Cyclin H - CDK7.
Consider `Cc1nc2c(s1)-c1nc(Nc3ccc(N4CCOCC4)cc3)ncc1CC2` [Cpd 4, (2-Methyl-4,5-dihydro-thiazolo[4,5-h]quinazolin-8-yl)-(4-morpholin-4-yl-phenyl)-amine], for which the IC50 with A549 is 3500 ± 1400 nM; on Cyclin A - CDK2 it was 910 ± 590 nM; in the test with Saos-2, 5000 ± 800 nM; against Cyclin T - CDK9, 520 ± 60 nM; against Cyclin D1 - CDK4 it was above 100000 nM; on Cyclin B - CDK1 it was 45000 ± 25000 nM. Also, the IC50 in the test with HT29 is 2100 ± 2000 nM; at Cyclin E - CDK2, 400 ± 100 nM; against Cyclin H - CDK7, 2200 ± 500 nM.
Take `Cc1nc2c(s1)-c1nc(Nc3ccc(O)cc3)ncc1CC2` [Cpd 5, 4-(2-Methyl-4,5-dihydro-thiazolo[4,5-h]quinazolin-8-ylamino)-phenol]: the IC50 was 4200 ± 1200 nM in the test on A549; 9 ± 3 nM against Cyclin A - CDK2; 6600 ± 5800 nM in the test with Saos-2; 1600 ± 800 nM against Cyclin T - CDK9; 1000 nM at Cyclin D1 - CDK4; 600 ± 120 nM against Cyclin B - CDK1. For the same compound, the results for the IC50 in the test on HT29, against Cyclin E - CDK2 and on Cyclin H - CDK7 were 9900 ± 1200 nM, 2 ± 1 nM and 640 ± 230 nM, respectively.
`Cc1nc2c(s1)-c1nc(Nc3ccc(N(C)C)cc3)ncc1CC2` [Cpd 6, N,N-Dimethyl-N′-(2-methyl-4,5-dihydro-thiazolo[4,5-h]quinazolin-8-yl)-benzene-1,4-diamine]: the IC50 with A549 was found to be 8000 ± 4000 nM; against Cyclin A - CDK2, 58 ± 7 nM; in the test with Saos-2, 5300 ± 1900 nM; against Cyclin T - CDK9 it was 2100 ± 700 nM; against Cyclin D1 - CDK4 it was 70 ± 20 nM; against Cyclin B - CDK1 it was 7500 ± 6300 nM. The IC50 with HT29 turned out to be 3600 ± 1000 nM; at Cyclin E - CDK2, 21 ± 1 nM; at Cyclin H - CDK7, 130 ± 30 nM.
Regarding `Cc1nc2c(s1)-c1nc(Nc3ccc(Cl)nc3)ncc1CC2` [Cpd 7, (6-Chloro-pyridin-3-yl)-(2-methyl-4,5-dihydro-thiazolo[4,5-h]quinazolin-8-yl)-amine], the IC50 in the test on A549 stood at 3300 ± 300 nM; at Cyclin A - CDK2, 14 ± 6 nM; in the test with Saos-2 it was 4900 ± 3400 nM; on Cyclin T - CDK9, 4100 ± 1700 nM; at Cyclin D1 - CDK4 it was 75 nM; against Cyclin B - CDK1, 58 ± 46 nM. The results for the IC50 in the test on HT29, against Cyclin E - CDK2 and at Cyclin H - CDK7 were 4000 ± 100 nM, 49 ± 2 nM and 2800 ± 600 nM, respectively.
Take `COc1ccc(Nc2ncc3c(n2)-c2sc(C)nc2CC3)cn1` [Cpd 8, (6-Methoxy-pyridin-3-yl)-(2-methyl-4,5-dihydro-thiazolo[4,5-h]quinazolin-8-yl)-amine]: the IC50 in the test on A549 was found to be 6000 ± 5100 nM; against Cyclin A - CDK2, 14 ± 12 nM; in the test with Saos-2 it was 5000 ± 2700 nM; on Cyclin T - CDK9, 3300 ± 1600 nM; on Cyclin D1 - CDK4, 220 ± 190 nM; against Cyclin B - CDK1, 230 ± 190 nM. The IC50 was 4700 ± 3800 nM with HT29, 89 ± 16 nM against Cyclin E - CDK2 and 2300 ± 400 nM against Cyclin H - CDK7.
In the case of `Cc1nc2c(s1)-c1nc(N(C)c3cccc([N+](=O)[O-])c3)ncc1CC2` [Cpd 9, Methyl-(2-methyl-4,5-dihydro-thiazolo[4,5-h]quinazolin-8-yl)-(3-nitro-phenyl)-amine], the IC50 in the test with A549 was above 20000 nM; against Cyclin A - CDK2, 14000 ± 6000 nM; in the test on Saos-2 it was above 20000 nM; at Cyclin T - CDK9 it was 39000 ± 19000 nM; at Cyclin D1 - CDK4, above 80000 nM; at Cyclin B - CDK1, 8000 ± 2000 nM. Moreover, the IC50 is above 20000 nM in the test with HT29, 1180 ± 30 nM on Cyclin E - CDK2 and 3900 ± 1400 nM at Cyclin H - CDK7.
As for `Cc1nc2ccc3cnc(N(C)c4cccc([N+](=O)[O-])c4)nc3c2s1` [Cpd 10, Methyl-(2-methyl-thiazolo[4,5-h]quinazolin-8-yl)-(3-nitro-phenyl)-amine], the IC50 with A549 is above 40000 nM; at Cyclin A - CDK2, 47000 ± 20000 nM; in the test with Saos-2, above 40000 nM; against Cyclin T - CDK9, above 100000 nM; against Cyclin D1 - CDK4, above 40000 nM; at Cyclin B - CDK1 it was 22000 ± 8000 nM. Besides, the IC50 was above 40000 nM with HT29, 3200 ± 800 nM at Cyclin E - CDK2 and 44000 ± 11000 nM on Cyclin H - CDK7.
As to `Cc1nc2c(s1)-c1nc(Nc3ccccc3)ncc1CC2` [Cpd 11, (2-Methyl-4,5-dihydro-thiazolo[4,5-h]quinazolin-8-yl)-phenyl-amine], the concentration for half-maximal inhibition (IC50) against Cyclin A - CDK2 is 1700 nM; against Cyclin D1 - CDK4, 1680 ± 40 nM; against Cyclin B - CDK1 it was 2200 ± 700 nM; on Cyclin E - CDK2, 1 ± 1 nM; on Cyclin H - CDK7, above 20000 nM.
For the compound `Cc1nc2ccc3cnc(Nc4ccccc4)nc3c2s1` [Cpd 12, (2-Methyl-thiazolo[4,5-h]quinazolin-8-yl)-phenyl-amine], the IC50 against Cyclin A - CDK2 was 4300 ± 2500 nM; against Cyclin D1 - CDK4, 5000 ± 4000 nM; against Cyclin B - CDK1, 5200 ± 1300 nM; at Cyclin E - CDK2 it was 48 ± 13 nM; at Cyclin H - CDK7 it was above 20000 nM.
As for `Nc1nc2c(s1)-c1nc(Nc3ccccc3)ncc1CC2` [Cpd 13, N^8-Phenyl-4,5-dihydro-thiazolo[4,5-h]quinazoline-2,8-diamine], the IC50 at Cyclin A - CDK2 is 920 ± 470 nM; against Cyclin T - CDK9 it was 360 ± 140 nM; on Cyclin D1 - CDK4 it was 610 ± 90 nM; against Cyclin B - CDK1 it was 1900 ± 700 nM; at Cyclin E - CDK2, 0.7 nM; against Cyclin H - CDK7, 2500 ± 1000 nM.
As to `Nc1nc2c(s1)-c1nc(Nc3cccc([N+](=O)[O-])c3)ncc1CC2` [Cpd 14, N^8-(3-Nitro-phenyl)-4,5-dihydro-thiazolo[4,5-h]quinazoline-2,8-diamine], the IC50 was determined as 22 ± 10 nM against Cyclin A - CDK2, 250 ± 120 nM at Cyclin D1 - CDK4, 54 ± 16 nM at Cyclin B - CDK1 and 1 ± 1 nM against Cyclin E - CDK2.
